Experimental data from patent US20090142370A1, “Method for preventing skin-cellular aging by using green algae extract and cosmetic composition containing green algae extract” (priority 2007, published 2009).

Legend:
Type in all cases: cell-based
MMP [1] = assay: PMA-induced MMP production in fibroblasts, quantified (FIG. 1); details: 5-hour incubation, control about 25, PMA alone about 70 ng/mL
Description: (§1) The experiments are conducted under two kinds of conditions, wherein one uses phorbol 12-myristate 13-acetate (PMA) to induce skin-cells to produce MMP while the other uses UVB to induce skin-cells to produce MMP and the inhibitory effects of the green algae extract of the present invention on MMP produced under both conditions are tested.
As known by those skilled in the art, PMA is an activator of protein kinase C (PKC) in fibroblasts, and PKC is an activator of MMP. Further, unduly activated MMP can break collagens as well as elastins in fibroblasts and in turn lead to aged skin. In the experiment shown in FIG. 1, Rectangle (1) belongs to a control group; Rectangle (2) belongs to a comparison group; and Rectangles (3), (4), (5) and (6) belong to an experimental group. A 5-hour incubation is conducted in each of the groups.

MMP [2] = assay: UVB-induced MMP in fibroblasts, quantified (FIG. 5); details: no UV about 3.5, UV alone about 6.0 ng/mL
Description: as §1

MMP [3] = assay: PMA-induced MMP in fibroblasts, Western blotting (FIG. 2); details: 100 nM PMA + 0.4 nM GM
From the text: The images in the upper picture represent MMP expressions while the images in the lower picture are provided as a house keeping gene expressed protein.

MMP3 = assay: PMA-induced gene expression in fibroblasts, RT-PCR (FIG. 4); details: 100 nM PMA + 0.4 nM GM
From the text: (§2) The […] inhibitor proteins TIMP1 and TIMP3 exist in fibroblasts to counterbalance metalloproteinases MMP1 and MMP3.

TIMP1 = assay: as above; details: 100 nM PMA + 0.4 nM GM
From the text: as §2

TIMP3 = assay: as above; details: 100 nM PMA + 0.4 nM GM
From the text: as §2

O=C1O[C@H]([C@@H](O)CO)C(O)=C1O [Vitamin C]
average content of MMP (MMP [1]; 100 nM PMA + 0.15 nM Vitamin C): about 60 ng/mL
average content of MMP (MMP [2]; 0.15 mM Vitamin C added before 1.5 hours UV): 9.0 ng/mL

Vitamin E
average content of MMP (MMP [2]; 25 uM Vitamin E added before 1.5 hours UV): 6.0 ng/mL

CNC(=O)[C@H](Cc1c[nH]c2ccccc12)NC(=O)[C@@H](CC(=O)NO)CC(C)C [GM]
average content of MMP (MMP [1]; 100 nM PMA + 0.4 nM GM): about 50 ng/mL
MMP activity (Western blot) compared with PMA alone (MMP [3]): slightly inhibits
MMP3 mRNA expression (RT-PCR) compared with PMA alone (MMP3): less
TIMP1 genetic expression (RT-PCR) compared with PMA alone (TIMP1): fails to significantly enhance
TIMP3 genetic expression (RT-PCR) compared with PMA alone (TIMP3): fails to significantly enhance
